Experimental data reported in PubChem BioAssay (NCI).
Several values for one entry are separate records, joined by “and”; a condition that tells them apart may be missing. Equal values may be shown once.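 Compound exposure: 48 hours, 5 concentrations, 96-well plates. GI50 marks 50% less growth. Definition used: TGI = concentration required for complete inhibition of growth.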 Where a SMILES comes first, the peptide text is derived from it. [ ]: non-standard residue; d: D form. The star is where a group is joined. ξ: configuration not given here. X3 = COc1ccc(C(N*)c2ccc(OC)cc2)cc1; NMeF = CN[C@@H](Cc1ccccc1)C(=O)O; NMeD = CN[C@@H](CC(=O)O)C(=O)O; NMeV = CN[C@H](C(=O)O)C(C)C; ξNMeV = CNC(C(=O)O)C(C)C; Boc = CC(C)(C)OC(=O)*; ξNMeA = CNC(C)C(=O)O; ξV = CC(C)C(N)C(=O)O

Columns and labels:
Experiment in all cases: growth of human tumour cells (NCI), 48 h
[1] = tested on: IGROV1 ovarian
[2] = tested on: LOX IMVI melanoma
[3] = tested on: NCI-H23 lung
[4] = tested on: NCI-H522 lung
[5] = tested on: OVCAR-3 ovarian
[6] = tested on: OVCAR-5 ovarian
[7] = tested on: SF-268 CNS
[8] = tested on: SF-295 CNS
[9] = tested on: SK-MEL-2 melanoma
[10] = tested on: T-47D breast

Structure (SMILES) | GI50 [1] | TGI [1] | GI50 [2] | TGI [2] | GI50 [3] | TGI [3] | GI50 [4] | TGI [4] | GI50 [5] | TGI [5] | GI50 [6] | TGI [6] | GI50 [7] | TGI [7] | TGI [8] | GI50 [9] | TGI [9] | TGI [10] | GI50 [8] | GI50 [10]
COc1ccc(C(NC(=O)C[C@@H](C(=O)N(C)C(C)C(=O)O)N(C)C(=O)[C@@H]2CCCN2C(=O)[C@H](C(C)C)N(C)C(=O)C(C(C)C)N(C)C(=O)[C@H](Cc2ccccc2)N(C)C(=O)C(NC(=O)OC(C)(C)C)C(C)C)c2ccc(OC)cc2)cc1 (some centres not stated) (Boc-[ξV][NMeF][ξNMeV][NMeV]P[NMeD](X3)[ξNMeA]-OH) | 14.7 µM | 27.8 µM and 28 µM | 17.2 µM | 15.7 µM and 31.2 µM | 23.1 µM | 37.5 µM and 53.4 µM | 17.5 µM | 27.4 µM and 31.3 µM | 18.2 µM | 27.4 µM and 32.9 µM | 17.3 µM | > 37.5 µM and 31.5 µM | 15.1 µM | 31.9 µM and 28.6 µM | 30.2 µM and 32.8 µM | 14.5 µM | 16.8 µM and 28.9 µM | 36.7 µM |  | 
CC1(C)OC1COc1c2occc2cc2ccc(=O)oc12 (configuration not stated) |  | > 100 µM |  | > 100 µM |  | > 100 µM |  | > 100 µM |  | > 100 µM |  | > 100 µM |  | > 100 µM | > 100 µM |  | > 100 µM | > 100 µM |  | 
COc1cccc(-c2nc(-c3ccc(NC(=O)OC(C)C)cc3)[nH]c2-c2ccnc(Br)c2)c1 | 3.54 µM | > 100 µM | 1.49 µM | 3.36 µM | 2.61 µM | 9.54 µM | 2.48 µM | 9.01 µM | 2.83 µM | > 100 µM | 4.43 µM | > 100 µM | 3.35 µM | > 100 µM | 0.64 µM | 2.33 µM | 7.03 µM | 7.64 µM | 0.256 µM | 2.08 µM
CCCCCCCCCCCCC(O)c1ccc(C#CCCCCCCCCCO)o1 (configuration not stated) | 25.9 µM | 51.8 µM | 18.5 µM | 33.5 µM | 26.4 µM | 48.8 µM | 21 µM | 45.5 µM | 19.1 µM | 34 µM | 20.9 µM | 39.2 µM | 23.2 µM | 49.4 µM | 31.7 µM | 26.4 µM | 81 µM | > 100 µM | 16.4 µM | 44.2 µM
O=C1NC(=NC(CO)Cc2ccccc2)S/C1=C\c1ccc2ncccc2c1 (configuration not stated) | 12.8 µM and 2.08 µM | > 25 µM | 16.5 µM and 3.85 µM | > 25 µM | 17.7 µM and 2.23 µM | > 25 µM | 8.38 µM and 2.85 µM | > 25 µM and 10 µM | 19.8 µM and 2.73 µM | > 25 µM and 11.8 µM | > 25 µM and 6.83 µM | > 25 µM | 20 µM and 4.36 µM | > 25 µM | > 25 µM | 10.1 µM and 4.32 µM | > 25 µM and 12.4 µM | > 25 µM | > 25 µM and 5.5 µM | 21.1 µM and 5.26 µM
CC1(COc2ccc3c(c2)ncn3-c2ccc3cccc(N4CCC(N)CC4)c3n2)COC1 | 4.07 µM and 2.57 µM | 14 µM and > 10 µM | 1.4 µM and 1.16 µM | 3.97 µM and > 10 µM | 2.13 µM and 1.94 µM | 8.59 µM and 5.28 µM | 1.21 µM and 1.6 µM | 3.3 µM and 5.19 µM | 2.35 µM and 2.99 µM | 4.73 µM and > 10 µM | 3.26 µM and 2.57 µM | 12.8 µM and > 10 µM | 2.74 µM and 2.85 µM | 9.15 µM and > 10 µM | 19.4 µM and > 10 µM | 4.96 µM and 3.29 µM | 11.9 µM and 6.85 µM | 30.5 µM and > 10 µM | 5.75 µM and 2.88 µM | 15.9 µM and > 10 µM
CC(C)c1cc2c(cc1S(=O)(=O)O)[C@@]1(C)CCC[C@@](C)(C(=O)O)C1CC2 (some centres not stated) |  | > 100 µM |  | > 100 µM |  | > 100 µM |  | > 100 µM |  | > 100 µM |  | > 100 µM |  | > 100 µM | > 100 µM |  | > 100 µM | > 100 µM |  | 
CC(=O)CC(OC(C)=O)C1=CCC2C(CC1C)OC(=O)C2C (configuration not stated) |  | > 100 µM |  | > 100 µM |  | > 100 µM |  | > 100 µM |  | > 100 µM |  | > 100 µM |  | > 100 µM | > 100 µM |  | > 100 µM | > 100 µM |  | 
N#CC(C#N)=C/C=C(\Sc1nc2ccccc2s1)c1ccc(Cl)cc1 | 4.87 µM | 12.5 µM | 2.59 µM | > 26.5 µM | 3.56 µM | 13.2 µM | 10.1 µM | 41.9 µM | 4.77 µM | 22.9 µM | 7.02 µM | 21.5 µM | 14.6 µM | 33 µM | 27.7 µM | 27.8 µM | > 100 µM | > 33 µM | 8.9 µM | 
CCC(=C/[C@H](C)C/C=C/C(C)=C/[C@@H](C)C(=O)[C@@H](C)[C@H](O)[C@@H](C)CC)/C=C/[C@H]1OC(=O)C=C[C@@H]1C | < 0.01 µM | 7.67 µM | < 0.01 µM | 1.23 µM | < 0.01 µM | 3.36 µM | < 0.01 µM |  | < 0.01 µM | 3.96 µM | < 0.01 µM |  | < 0.01 µM | 1.72 µM | 1.43 µM | < 0.01 µM |  | 4.88 µM | < 0.01 µM | < 0.01 µM
O=C(Nc1ccc(Oc2ccc(Nc3nc4ccccc4s3)cc2)cc1)Nc1ccc(Cl)c(C(F)(F)F)c1 | 1.67 µM | 3.62 µM | 1.42 µM | 2.76 µM | 1.06 µM | 2.77 µM | 1.51 µM | 3.39 µM | 1.54 µM | 3.98 µM | 1.64 µM | 3.61 µM | 1.94 µM | 4.74 µM | 3.41 µM | 2.12 µM | 4.35 µM | 3.96 µM | 1.66 µM | 1.21 µM
CCN1C(=O)N(c2ccccc2)C2NC(=S)N(/N=C/C=C/c3ccccc3OC)C21 (configuration not stated) | 0.136 µM | 10.8 µM | 0.109 µM | > 69.5 µM | 0.174 µM | > 61.6 µM | 0.0409 µM | 0.189 µM | 0.0778 µM | 0.221 µM | 0.17 µM | > 86.2 µM | 0.195 µM | > 100 µM | 25.7 µM | 0.166 µM | > 76.2 µM | > 100 µM | 0.0749 µM | 4.12 µM
CC(=O)N(C(=O)CC(=O)N1N=C(c2ccccc2)C(N=Nc2ccccc2[N+](=O)[O-])C1=O)c1ccc(Cl)cc1 (configuration not stated) |  | > 10 µM |  | > 10 µM |  | > 10 µM |  | > 10 µM |  | > 10 µM |  | > 10 µM |  | > 10 µM | > 10 µM |  | > 10 µM | > 10 µM |  | 
Cc1ccc(-n2c3nc(=O)[nH]c(=O)c-3cc3cc([N+](=O)[O-])ccc32)cc1 |  |  | 4.77 µM | 21.5 µM | 13.4 µM | 29.6 µM | 33.2 µM | 77.5 µM | 2.18 µM | 4.79 µM | 21.1 µM | 50.2 µM | 17.3 µM | 54.8 µM | 37.3 µM | 44.2 µM | > 100 µM | 36 µM | 15.9 µM | 14.3 µM
